Data on 34 molecules can be found in US6610677B2, “Pyrazole compounds useful as protein kinase inhibitors” (Vertex Pharmaceuticals Incorporated, priority 2000, dated 2003).

T1 sequence (P49841 whole entry, the tested form may be a part): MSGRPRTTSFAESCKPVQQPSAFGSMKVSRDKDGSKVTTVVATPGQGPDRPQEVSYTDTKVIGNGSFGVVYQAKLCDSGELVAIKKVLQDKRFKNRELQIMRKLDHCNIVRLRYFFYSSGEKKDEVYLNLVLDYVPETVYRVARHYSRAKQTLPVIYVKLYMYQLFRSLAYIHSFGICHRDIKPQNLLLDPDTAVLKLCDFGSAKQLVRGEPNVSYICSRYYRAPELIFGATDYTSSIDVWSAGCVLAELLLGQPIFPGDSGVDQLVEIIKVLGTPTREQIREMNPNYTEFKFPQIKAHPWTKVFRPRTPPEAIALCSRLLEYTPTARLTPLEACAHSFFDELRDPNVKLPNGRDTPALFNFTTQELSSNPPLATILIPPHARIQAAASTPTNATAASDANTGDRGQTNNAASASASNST

The assay concerns the target T1, GSK-3β (AA 1-420) (Homo sapiens, UniProt P49841).
T1 construct: GSK-3β (AA 1-420)
The assay is described as follows: Ki determination for the inhibition of GSK-3 (coupled enzyme system). It counts as biochemical. The settings on record: 20 μM ATP, 300 μM peptide, 20 nM GSK-3β, 30° C. The procedure: Compounds were screened for their ability to inhibit GSK-3β (AA 1-420) activity using a standard coupled enzyme system (Fox et al. (1998) Protein Sci. 7, 2249). Reactions were carried out in a solution containing 100 mM HEPES (pH 7.5), 10 mM MgCl2, 25 mM NaCl, 300 μM NADH, 1 mM DTT and 1.5% DMSO. Final substrate concentrations in the assay were 20 μM ATP (Sigma Chemicals, St Louis, Mo.) and 300 μM peptide (HSSPHQS(PO3H2)EDEEE, American Peptide, Sunnyvale, Calif.). Reactions were carried out at 30° C. and 20 nM GSK-3β. Final concentrations of the components of the coupled enzyme system were 2.5 mM phosphoenolpyruvate, 300 μM NADH, 30 μg/ml pyruvate kinase and 10 μg/ml lactate dehydrogenase.
An assay stock buffer solution was prepared containing all of the reagents listed above with the exception of ATP and the test compound of interest. The assay stock buffer solution (175 μl) was incubated in a 96 well plate with 5 μl of the test compound of interest at final concentrations spanning 0.002 μM to 30 μM at 30° C. for 10 min. Typically, a 12 point titration was conducted by preparing serial dilutions (from 10 mM compound stocks) with DMSO of the test compounds in daughter plates. The reaction was initiated by the addition of 20 μl of ATP (final concentration 20 μM). Rates of reaction were obtained using a Molecular Devices Spectramax plate reader (Sunnyvale, Calif.) over 10 min at 30° C. The Ki values were determined from the rate data as a function of inhibitor concentration.
A word on the Ki: it is a dissociation constant, usually derived from enzyme kinetics or from competition with a known ligand. A lower Ki goes with a stronger hold on the target. Turning to `Fc1cc(F)c2[nH]nc(Nc3nc(-c4ccccc4C(F)(F)F)cc4ccccc34)c2c1` [Compound V-3, (5,7-Difluoro-1H-indazol-3-yl)-[3-(2-trifluoromethyl-phenyl)-isoquinolin-1-yl]-amine], the Ki was < 100 nM.
`FC(F)(F)c1ccccc1-c1cc(Nc2n[nH]c3ccccc23)c2ccccc2n1` [Compound V-7, (1H-Indazol-3-yl)-[2-(2-trifluoromethyl-phenyl)-quinolin-4-yl]-amine]: the Ki was 100 to 1000 nM.
`Fc1cc(F)c2[nH]nc(Nc3cc(-c4ccccc4C(F)(F)F)nc4ccccc34)c2c1` [Compound V-8, (5,7-Difluoro-1H-indazol-3-yl)-[2-(2-trifluoromethyl-phenyl)-quinolin-4-yl]-amine]: the Ki was in the range of 1000 to 20000 nM.
The value for `Clc1ccccc1-c1nc2c(c(Nc3n[nH]c4ccccc34)n1)CCCCC2` [II-2, [2-(2-Chloro-phenyl)-6,7,8,9-tetrahydro-5H-cycloheptapyrimidin-4-yl]-(1H-indazol-3-yl)-amine] was < 100 nM; that for `Fc1ccc2[nH]nc(Nc3nc(-c4ccccc4C(F)(F)F)nc4c3CCNC4)c2c1` [II-3, (5-Fluoro-1H-indazol-3-yl)-[2-(2-trifluoromethyl-phenyl)-5,6,7,8-tetrahydro-pyrido[3,4-d]pyrimidin-4-yl]-amine] was < 100 nM; that for `Fc1cccc2c(Nc3nc(-c4ccccc4Cl)nc4c3CCCCC4)n[nH]c12` [II-4, [2-(2-Chloro-phenyl)-6,7,8,9-tetrahydro-5H-cycloheptapyrimidin-4-yl]-(7-fluoro-1H-indazol-3-yl)-amine] was < 100 nM.
The value for `Fc1ccc2[nH]nc(Nc3nc(-c4ccccc4Cl)nc4c3CCCCC4)c2c1` [II-5, [2-(2-Chloro-phenyl)-6,7,8,9-tetrahydro-5H-cycloheptapyrimidin-4-yl]-(5-fluoro-1H-indazol-3-yl)-amine] was < 100 nM; that for `Fc1cc(F)c2[nH]nc(Nc3nc(-c4ccccc4Cl)nc4c3CCCCC4)c2c1` [II-6, [2-(2-Chloro-phenyl)-6,7,8,9-tetrahydro-5H-cycloheptapyrimidin-4-yl]-(5,7-difluoro-1H-indazol-3-yl)-amine] was < 100 nM.
The value for `Fc1cccc2c(Nc3nc(-c4ccccc4C(F)(F)F)nc4c3CCCC4)n[nH]c12` [II-7, (7-Fluoro-1H-indazol-3-yl)-[2-(2-trifluoromethyl-phenyl)-5,6,7,8-tetrahydroquinazolin-4-yl]-amine] was < 100 nM; that for `Fc1ccc2[nH]nc(Nc3nc(-c4ccccc4C(F)(F)F)nc4c3CCCC4)c2c1` [II-8, (5-Fluoro-1H-indazol-3-yl)-[2-(2-trifluoromethyl-phenyl)-5,6,7,8-tetrahydroquinazolin-4-yl]-amine] was < 100 nM; that for `Fc1cc(F)c2[nH]nc(Nc3nc(-c4ccccc4C(F)(F)F)nc4c3CCCC4)c2c1` [II-9, (5,7-Difluoro-1H-indazol-3-yl)-[2-(2-trifluoromethyl-phenyl)-5,6,7,8-tetrahydroquinazolin-4-yl]-amine] was < 100 nM.
As for `Fc1cc(F)c2[nH]nc(Nc3nc(-c4ccccc4C(F)(F)F)nc4c3CCCCC4)c2c1` [II-11, (5,7-difluoro-1H-indazol-3-yl)-[2-(2-trifluoromethyl-phenyl)-6,7,8,9-tetrahydro-5H-cycloheptapyrimidin-4-yl]-amine], the Ki is < 100 nM.
In the case of `Fc1ccc2[nH]nc(Nc3nc(-c4ccccc4C(F)(F)F)nc4c3CN(Cc3ccccc3)CC4)c2c1` [II-12, (6-Benzyl-2-(2-trifluoromethyl-phenyl)-5,6,7,8-tetrahydro-pyrido[4,3-d]pyrimidin-4-yl)-(5-fluoro-1H-indazol-3-yl)-amine], the Ki is < 100 nM.
Regarding `FC(F)(F)c1ccccc1-c1nc2c(c(Nc3n[nH]c4ccccc34)n1)CCCCC2` [II-13, (1H-Indazol-3-yl)-[2-(2-trifluoromethyl-phenyl)-6,7,8,9-tetrahydro-5H-cycloheptapyrimidin-4-yl]-amine], the Ki was < 100 nM.
The value for `Fc1cccc2c(Nc3nc(-c4ccccc4C(F)(F)F)nc4c3CCCCC4)n[nH]c12` [II-14, (7-Fluoro-1H-indazol-3-yl)-[2-(2-trifluoromethyl-phenyl)-6,7,8,9-tetrahydro-5H-cycloheptapyrimidin-4-yl]-amine] was < 100 nM; that for `Fc1ccc2[nH]nc(Nc3nc(-c4ccccc4C(F)(F)F)nc4c3CCCCC4)c2c1` [II-15, (5-Fluoro-1H-indazol-3-yl)-[2-(2-trifluoromethyl-phenyl)-6,7,8,9-tetrahydro-5H-cycloheptapyrimidin-4-yl]-amine] was < 100 nM; that for `Fc1ccc2[nH]nc(Nc3nc(-c4ccccc4C(F)(F)F)nc4c3CNCC4)c2c1` [II-16, (5-Fluoro-1H-indazol-3-yl)-[2-(2-trifluoromethyl-phenyl)-5,6,7,8-tetrahydro-pyrido[4,3-d]pyrimidin-4-yl]-amine] was < 100 nM.
The value for `FC(F)(F)c1ccccc1-c1nc2c(c(Nc3n[nH]c4ccccc34)n1)CCCC2` [II-17, (1H-indazol-3-yl)-[2-(2-trifluoromethyl-phenyl)-5,6,7,8-tetrahydroquinazolin-4-yl]-amine] was < 100 nM.
In the case of `Fc1ccc2[nH]nc(Nc3nc(-c4ccccc4C(F)(F)F)nc4c3CCN(Cc3ccccc3)C4)c2c1` [II-18] it was < 100 nM.
`FC(F)(F)c1ccccc1-c1nc(Nc2n[nH]c3ccccc23)cc(-c2ccccn2)n1` [II-22, (1H-Indazol-3-yl)-[6-(pyridin-2-yl)-2-(2-trifluoromethyl-phenyl)-pyrimidin-4-yl]-amine] displayed a Ki of 100 to 1000 nM.
For `FC(F)(F)c1ccccc1-c1nc(Nc2n[nH]c3ccccc23)cc(-c2ccccc2Cl)n1` [II-23, [6-(2-Chlorophenyl)-2-(2-trifluoromethyl-phenyl)-pyrimidin-4-yl]-(1H-indazol-3-yl)-amine], the Ki is < 100 nM.
The value for `Cc1nc(-c2ccccc2Cl)nc(Nc2n[nH]c3ccccc23)c1C` [II-26, [2-(2-Chlorophenyl)-5,6-dimethyl-pyrimidin-4-yl]-(1H-indazol-3-yl)-amine] was < 100 nM.
In the case of `Cc1nc(-c2ccccc2C(F)(F)F)nc(Nc2n[nH]c3c(F)cccc23)c1C` [II-27, [5,6-Dimethyl-2-(2-trifluoromethyl-phenyl)-pyrimidin-4-yl]-(7-fluoro-1H-indazol-3-yl)-amine] it was < 100 nM; in that of `Cc1nc(-c2ccccc2C(F)(F)F)nc(Nc2n[nH]c3c(F)cc(F)cc23)c1C` [II-28, (5,7-Difluoro-1H-indazol-3-yl)-[5,6-Dimethyl-2-(2-trifluoromethyl-phenyl)-pyrimidin-4-yl]-amine], < 100 nM; in that of `Cc1nc(-c2ccccc2Cl)nc(Nc2n[nH]c3c(F)cc(F)cc23)c1C` [II-29, [2-(2-Chlorophenyl)-5,6-dimethyl-pyrimidin-4-yl]-(5,7-difluoro-1H-indazol-3-yl)-amine], < 100 nM.
In the case of `Cc1nc(-c2ccccc2Cl)nc(Nc2n[nH]c3c(F)cccc23)c1C` [II-30, [2-(2-Chlorophenyl)-5,6-dimethyl-pyrimidin-4-yl]-(7-fluoro-1H-indazol-3-yl)-amine] it was < 100 nM; in that of `Cc1nc(-c2ccccc2Cl)nc(Nc2n[nH]c3ccc(F)cc23)c1C` [II-31, [2-(2-Chlorophenyl)-5,6-dimethyl-pyrimidin-4-yl]-(5-fluoro-1H-indazol-3-yl)-amine], < 100 nM; in that of `Cc1nc(-c2ccc(Cl)cc2Cl)nc(Nc2n[nH]c3ccccc23)c1C` [II-32, [2-(2,4-Dichlorophenyl)-5,6-dimethyl-pyrimidin-4-yl]-(1H-indazol-3-yl)-amine], 100 to 1000 nM.
Molecule `Cc1cc(Nc2nc(-c3ccccc3-c3ccccc3)nc3ccccc23)n[nH]1` [II-43, (2-Biphenyl-2-yl-quinazolin-4-yl)-(5-methyl-2H-pyrazol-3-yl)-amine] yielded a Ki of 1000 to 20000 nM.
In the case of `Cc1cc(Nc2nc(-c3ccccc3O)nc3ccccc23)n[nH]1` [II-44, [2-(2-Hydroxyphenyl)-quinazolin-4-yl]-(5-Methyl-2H-pyrazol-3-yl)-amine] it was 100 to 1000 nM; in that of `CCOc1ccccc1-c1nc(Nc2cc(C)[nH]n2)c2ccccc2n1` [II-45, [2-(2-Ethoxyphenyl)-quinazolin-4-yl]-(5-Methyl-2H-pyrazol-3-yl)-amine], 100 to 1000 nM; in that of `FC(F)(F)c1ccccc1-c1nc(Nc2cc(-c3cccs3)[nH]n2)c2ccccc2n1` [II-46, [5-(Thiophen-2-yl)-2H-pyrazol-3-yl]-[2-(2-trifluoromethylphenyl)-quinazolin-4-yl]-amine], < 100 nM.
In the case of `FC(F)(F)c1ccccc1-c1nc(Nc2n[nH]cc2-c2cccs2)c2ccccc2n1` [II-47, [4-(Thiophen-2-yl)-2H-pyrazol-3-yl]-[2-(2-trifluoromethylphenyl)-quinazolin-4-yl]-amine] it was 1000 to 20000 nM; in that of `FC(F)(F)c1ccccc1-c1nc(Nc2n[nH]cc2-c2ccccc2)c2ccccc2n1` [II-48, (4-Phenyl-2H-pyrazol-3-yl)-[2-(2-trifluoromethylphenyl)-quinazolin-4-yl]-amine], 1000 to 20000 nM.
